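Growth conditions: 96-well plates. Treatment: test compound, 48 hours, 5 concentrations. Analysis: linear interpolation between bracketing concentrations; unreached endpoints set to highest concentration. Definition used: TGI = concentration required for complete inhibition of growth.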
Assays:
Test in all cases: NCI tumour cell line growth inhibition, 48 h
OVCAR-8 ovarian = tested on: OVCAR-8 ovarian
MOLT-4 leukemia = tested on: MOLT-4 leukemia
SNB-19 CNS = tested on: SNB-19 CNS
MALME-3M melanoma = tested on: MALME-3M melanoma
SNB-78 CNS = tested on: SNB-78 CNS
HOP-18 NSCLC = tested on: HOP-18 NSCLC
LOX IMVI melanoma = tested on: LOX IMVI melanoma
SN12C renal = tested on: SN12C renal
KM12 colon = tested on: KM12 colon
OVCAR-5 ovarian = tested on: OVCAR-5 ovarian
NCI-H460 lung = tested on: NCI-H460 lung
K-562 leukemia = tested on: K-562 leukemia
HT29 colon = tested on: HT29 colon
HOP-92 NSCLC = tested on: HOP-92 NSCLC
ACHN renal = tested on: ACHN renal
SNB-75 CNS = tested on: SNB-75 CNS
RXF-631 renal = tested on: RXF-631 renal
UO-31 renal = tested on: UO-31 renal
SK-MEL-5 melanoma = tested on: SK-MEL-5 melanoma
SK-MEL-28 melanoma = tested on: SK-MEL-28 melanoma
LXFL 529 NSCLC = tested on: LXFL 529 NSCLC
COLO 205 colon = tested on: COLO 205 colon
HOP-62 NSCLC = tested on: HOP-62 NSCLC
M14 melanoma = tested on: M14 melanoma
SK-MEL-2 melanoma = tested on: SK-MEL-2 melanoma
EKVX NSCLC = tested on: EKVX NSCLC
M19-MEL melanoma = tested on: M19-MEL melanoma
SF-295 CNS = tested on: SF-295 CNS
OVCAR-3 ovarian = tested on: OVCAR-3 ovarian
SF-268 CNS = tested on: SF-268 CNS
CCRF-CEM leukemia = tested on: CCRF-CEM leukemia
NCI-H522 lung = tested on: NCI-H522 lung
DMS 273 small cell lung = tested on: DMS 273 small cell lung
RXF 393 renal = tested on: RXF 393 renal
KM20L2 colon = tested on: KM20L2 colon
XF 498 CNS = tested on: XF 498 CNS
SF-539 CNS = tested on: SF-539 CNS
NCI-H226 lung = tested on: NCI-H226 lung
CAKI-1 renal = tested on: CAKI-1 renal
SR leukemia = tested on: SR leukemia
RPMI-8226 leukemia = tested on: RPMI-8226 leukemia
A498 renal = tested on: A498 renal
HCT-116 colon = tested on: HCT-116 colon
UACC-257 melanoma = tested on: UACC-257 melanoma
NCI-H23 lung = tested on: NCI-H23 lung
SK-OV-3 ovarian = tested on: SK-OV-3 ovarian
DMS 114 small cell lung = tested on: DMS 114 small cell lung
OVCAR-4 ovarian = tested on: OVCAR-4 ovarian
TK-10 renal = tested on: TK-10 renal
DLD-1 colon = tested on: DLD-1 colon
HL-60(TB) leukemia = tested on: HL-60(TB) leukemia
IGROV1 ovarian = tested on: IGROV1 ovarian
786-0 renal = tested on: 786-0 renal
SW-620 colon = tested on: SW-620 colon
A549 NSCLC = tested on: A549 NSCLC
U251 CNS = tested on: U251 CNS
UACC-62 melanoma = tested on: UACC-62 melanoma
HCC-2998 colon = tested on: HCC-2998 colon
HCT-15 colon = tested on: HCT-15 colon

## CCCCCCCCC(=O)CCCCCCCCC(=O)O
OVCAR-8 ovarian
  TGI: 32.4 µM
MOLT-4 leukemia
  TGI: 40.2 µM
SNB-19 CNS
  TGI: > 100 µM
MALME-3M melanoma
  TGI: > 100 µM
SNB-78 CNS
  TGI: > 100 µM
HOP-18 NSCLC
  TGI: 49.4 µM
LOX IMVI melanoma
  TGI: 30.2 µM
SN12C renal
  TGI: 76.2 µM
KM12 colon
  TGI: 32 µM
OVCAR-5 ovarian
  TGI: 55.3 µM
NCI-H460 lung
  TGI: 44.6 µM
K-562 leukemia
  TGI: 46.6 µM
HT29 colon
  TGI: 49.7 µM
HOP-92 NSCLC
  TGI: 35.2 µM
ACHN renal
  TGI: 59.8 µM
SNB-75 CNS
  TGI: > 100 µM
RXF-631 renal
  TGI: 44.1 µM
UO-31 renal
  TGI: 84.7 µM
SK-MEL-5 melanoma
  TGI: 29.1 µM
SK-MEL-28 melanoma
  TGI: > 100 µM
LXFL 529 NSCLC
  TGI: 67.5 µM
COLO 205 colon
  TGI: 59.8 µM
HOP-62 NSCLC
  TGI: 66.6 µM
M14 melanoma
  TGI: 82.8 µM
SK-MEL-2 melanoma
  TGI: > 100 µM
EKVX NSCLC
  TGI: 93.3 µM
M19-MEL melanoma
  TGI: > 100 µM
SF-295 CNS
  TGI: > 100 µM
OVCAR-3 ovarian
  TGI: 40.1 µM
SF-268 CNS
  TGI: > 100 µM
CCRF-CEM leukemia
  TGI: > 100 µM
NCI-H522 lung
  TGI: 85 µM
DMS 273 small cell lung
  TGI: 75.7 µM
RXF 393 renal
  TGI: 67.1 µM
KM20L2 colon
  TGI: 67.8 µM
XF 498 CNS
  TGI: > 100 µM
SF-539 CNS
  TGI: 42.5 µM
NCI-H226 lung
  TGI: 63.6 µM
CAKI-1 renal
  TGI: > 100 µM
SR leukemia
  TGI: 42.5 µM
RPMI-8226 leukemia
  TGI: 51.2 µM
A498 renal
  TGI: 47.8 µM
HCT-116 colon
  TGI: 51 µM
UACC-257 melanoma
  TGI: > 100 µM
NCI-H23 lung
  TGI: 85.8 µM
SK-OV-3 ovarian
  TGI: > 100 µM
DMS 114 small cell lung
  TGI: 64.4 µM
OVCAR-4 ovarian
  TGI: > 100 µM
TK-10 renal
  TGI: > 100 µM
DLD-1 colon
  TGI: 40.1 µM
HL-60(TB) leukemia
  TGI: 16.2 µM
IGROV1 ovarian
  TGI: 36.4 µM
786-0 renal
  TGI: 64.3 µM
SW-620 colon
  TGI: > 100 µM
A549 NSCLC
  TGI: 45.2 µM
U251 CNS
  TGI: > 100 µM
UACC-62 melanoma
  TGI: 54.6 µM

## COC1OC(COCc2ccc(Cl)cc2)C(OCc2ccc(Cl)cc2)C1O (stereo unspecified)
OVCAR-8 ovarian
  TGI: 69.7 µM
MOLT-4 leukemia
  TGI: 66.6 µM
SNB-19 CNS
  TGI: 32.4 µM
MALME-3M melanoma
  TGI: 30.3 µM
HOP-18 NSCLC
  TGI: 25.7 µM
LOX IMVI melanoma
  TGI: 32.8 µM
SN12C renal
  TGI: 31.8 µM
KM12 colon
  TGI: 29.3 µM
OVCAR-5 ovarian
  TGI: 30 µM
NCI-H460 lung
  TGI: 32 µM
K-562 leukemia
  TGI: 38.5 µM
HT29 colon
  TGI: 33.2 µM
HOP-92 NSCLC
  TGI: 25.1 µM
ACHN renal
  TGI: 40.2 µM
SNB-75 CNS
  TGI: 32.8 µM
RXF-631 renal
  TGI: 34.6 µM
UO-31 renal
  TGI: 29.4 µM
SK-MEL-5 melanoma
  TGI: 28.6 µM
SK-MEL-28 melanoma
  TGI: 31.4 µM
LXFL 529 NSCLC
  TGI: 43.3 µM
COLO 205 colon
  TGI: 34.3 µM
HOP-62 NSCLC
  TGI: 32.1 µM
M14 melanoma
  TGI: 31 µM
SK-MEL-2 melanoma
  TGI: 30.6 µM
EKVX NSCLC
  TGI: 46.3 µM
M19-MEL melanoma
  TGI: 35.9 µM
SF-295 CNS
  TGI: 32.3 µM
OVCAR-3 ovarian
  TGI: 42.8 µM
SF-268 CNS
  TGI: 35.5 µM
CCRF-CEM leukemia
  TGI: 46.7 µM
NCI-H522 lung
  TGI: 27.5 µM
DMS 273 small cell lung
  TGI: 31.7 µM
RXF 393 renal
  TGI: 29.1 µM
KM20L2 colon
  TGI: 31.9 µM
XF 498 CNS
  TGI: 16 µM
SF-539 CNS
  TGI: 30.3 µM
CAKI-1 renal
  TGI: 54.2 µM
RPMI-8226 leukemia
  TGI: > 100 µM
UACC-257 melanoma
  TGI: 30.7 µM
NCI-H23 lung
  TGI: 31.9 µM
SK-OV-3 ovarian
  TGI: 65.9 µM
DMS 114 small cell lung
  TGI: 32.8 µM
HCC-2998 colon
  TGI: 32.6 µM
OVCAR-4 ovarian
  TGI: > 100 µM
HCT-15 colon
  TGI: 32.3 µM
TK-10 renal
  TGI: 67.4 µM
DLD-1 colon
  TGI: 34.1 µM
HL-60(TB) leukemia
  TGI: 32.2 µM
IGROV1 ovarian
  TGI: 50.9 µM
786-0 renal
  TGI: 30.8 µM
SW-620 colon
  TGI: 29.6 µM
A549 NSCLC
  TGI: 37.5 µM
U251 CNS
  TGI: 29.1 µM
UACC-62 melanoma
  TGI: 31.9 µM

## CC(C)CC(=O)N1CCN(C(=O)CC(C)C)c2ccccc21
OVCAR-8 ovarian
  TGI: > 100 µM
MOLT-4 leukemia
  TGI: > 100 µM
SNB-19 CNS
  TGI: > 100 µM
MALME-3M melanoma
  TGI: > 100 µM
SNB-78 CNS
  TGI: > 100 µM
HOP-18 NSCLC
  TGI: > 100 µM
LOX IMVI melanoma
  TGI: > 100 µM
KM12 colon
  TGI: > 100 µM
OVCAR-5 ovarian
  TGI: > 100 µM
NCI-H460 lung
  TGI: > 100 µM
K-562 leukemia
  TGI: > 100 µM
HT29 colon
  TGI: > 100 µM
HOP-92 NSCLC
  TGI: > 100 µM
ACHN renal
  TGI: > 100 µM
SNB-75 CNS
  TGI: > 100 µM
RXF-631 renal
  TGI: > 100 µM
UO-31 renal
  TGI: > 100 µM
SK-MEL-28 melanoma
  TGI: > 100 µM
LXFL 529 NSCLC
  TGI: > 100 µM
COLO 205 colon
  TGI: > 100 µM
HOP-62 NSCLC
  TGI: > 100 µM
SK-MEL-2 melanoma
  TGI: > 100 µM
EKVX NSCLC
  TGI: > 100 µM
M19-MEL melanoma
  TGI: > 100 µM
SF-295 CNS
  TGI: > 100 µM
OVCAR-3 ovarian
  TGI: > 100 µM
SF-268 CNS
  TGI: > 100 µM
CCRF-CEM leukemia
  TGI: > 100 µM
NCI-H522 lung
  TGI: > 100 µM
DMS 273 small cell lung
  TGI: > 100 µM
RXF 393 renal
  TGI: > 100 µM
KM20L2 colon
  TGI: > 100 µM
XF 498 CNS
  TGI: > 100 µM
SF-539 CNS
  TGI: > 100 µM
RPMI-8226 leukemia
  TGI: > 100 µM
A498 renal
  TGI: > 100 µM
HCT-116 colon
  TGI: > 100 µM
UACC-257 melanoma
  TGI: > 100 µM
NCI-H23 lung
  TGI: > 100 µM
SK-OV-3 ovarian
  TGI: > 100 µM
DMS 114 small cell lung
  TGI: > 100 µM
HCC-2998 colon
  TGI: > 100 µM
TK-10 renal
  TGI: > 100 µM
DLD-1 colon
  TGI: > 100 µM
HL-60(TB) leukemia
  TGI: > 100 µM
IGROV1 ovarian
  TGI: > 100 µM
786-0 renal
  TGI: > 100 µM
SW-620 colon
  TGI: > 100 µM
A549 NSCLC
  TGI: > 100 µM
U251 CNS
  TGI: > 100 µM
